In patent US11078197B2, “5-membered and bicyclic heterocyclic amides as inhibitors of rock” (BRISTOL-MYERS SQUIBB COMPANY, priority 2017, dated 2021) one finds IC50 data, which are given here for 26 compounds.

The assay has as its target ROCK2 (Homo sapiens (Human), UniProt O75116). Kind of assay: ROCK2 assay (peptide phosphorylation, LABCHIP 3000 Reader). Format: biochemical. The note with it: 5 μM ATP, 1.5 μM peptide substrate, dose-response. Here is the method: After incubation, the reaction was terminated by the addition of EDTA and the phosphorylated and non-phosphorylated peptides separated using a LABCHIP®3000 Reader (Caliper Life Sciences). […] Compounds were tested in dose-response format, and the inhibition of kinase activity was calculated at each concentration of compound. […] Representative Examples were tested in the ROCK2 assay described above and found having ROCK2 inhibitory activity.

One may read the IC50 as the concentration at which inhibition is half-maximal. The low end stands for inhibition by little substance, the high end for a need for much substance.

Each structure is given as a SMILES string.

Sequence of ROCK2 (O75116 whole entry, species assumed): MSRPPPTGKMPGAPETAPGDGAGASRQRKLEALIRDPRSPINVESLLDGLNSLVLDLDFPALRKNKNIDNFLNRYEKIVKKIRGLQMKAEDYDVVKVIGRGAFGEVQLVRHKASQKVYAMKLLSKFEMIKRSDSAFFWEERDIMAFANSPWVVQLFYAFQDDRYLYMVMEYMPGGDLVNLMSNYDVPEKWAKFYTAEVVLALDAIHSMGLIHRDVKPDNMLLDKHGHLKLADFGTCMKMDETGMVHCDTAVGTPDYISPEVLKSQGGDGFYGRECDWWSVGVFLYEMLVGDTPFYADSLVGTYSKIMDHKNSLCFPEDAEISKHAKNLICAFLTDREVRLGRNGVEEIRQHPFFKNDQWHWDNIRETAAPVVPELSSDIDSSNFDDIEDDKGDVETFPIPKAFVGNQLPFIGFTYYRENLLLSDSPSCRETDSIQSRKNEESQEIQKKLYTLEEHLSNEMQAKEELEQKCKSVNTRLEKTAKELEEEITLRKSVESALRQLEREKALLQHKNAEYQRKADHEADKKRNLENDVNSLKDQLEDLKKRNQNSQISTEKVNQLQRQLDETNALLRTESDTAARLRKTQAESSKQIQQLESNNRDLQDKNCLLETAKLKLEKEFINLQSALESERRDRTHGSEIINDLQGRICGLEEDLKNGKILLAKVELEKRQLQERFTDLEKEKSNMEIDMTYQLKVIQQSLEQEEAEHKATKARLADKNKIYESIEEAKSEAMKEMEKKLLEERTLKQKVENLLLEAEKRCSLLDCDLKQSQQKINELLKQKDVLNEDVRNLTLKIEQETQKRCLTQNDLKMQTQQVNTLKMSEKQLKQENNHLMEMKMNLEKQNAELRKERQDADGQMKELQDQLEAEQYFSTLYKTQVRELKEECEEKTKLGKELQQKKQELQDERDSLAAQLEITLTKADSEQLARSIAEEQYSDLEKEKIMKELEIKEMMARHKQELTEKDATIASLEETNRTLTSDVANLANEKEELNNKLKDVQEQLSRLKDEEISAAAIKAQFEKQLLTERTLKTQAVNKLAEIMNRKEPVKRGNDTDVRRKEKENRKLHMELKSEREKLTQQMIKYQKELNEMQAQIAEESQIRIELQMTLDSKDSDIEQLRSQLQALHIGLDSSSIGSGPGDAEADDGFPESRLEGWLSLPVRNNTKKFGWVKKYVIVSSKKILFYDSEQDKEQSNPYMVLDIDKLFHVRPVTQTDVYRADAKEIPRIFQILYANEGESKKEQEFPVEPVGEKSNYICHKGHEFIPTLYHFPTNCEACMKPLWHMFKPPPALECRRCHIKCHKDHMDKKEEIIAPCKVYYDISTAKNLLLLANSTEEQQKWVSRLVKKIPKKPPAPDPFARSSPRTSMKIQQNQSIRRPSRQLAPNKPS

The compound `N#Cc1cc(C(=O)N[C@H]2C[C@]3(C2)C[C@H](Oc2nc4c(cc2C(N)=O)COCC4)C3)ccc1F` (stereo partly drawn) [Example 87, 2-{[(aR)-6-(3-cyano-4-fluorobenzamido)spiro[3.3]heptan-2-yl]oxy}-5H,7H,8H-pyrano[4,3-b]pyridine-3-carboxamide] showed an IC50 of 156 nM.

Take `N#Cc1ccc(C(=O)N[C@H]2C[C@]3(C2)C[C@H](Oc2nc4c(cc2C(N)=O)COCC4)C3)cc1F` (stereo partly drawn) [Example 93, 2-{[(aR)-6-(4-cyano-3-fluorobenzamido)spiro[3.3]heptan-2-yl]oxy}-5H,7H,8H-pyrano[4,3-b]pyridine-3-carboxamide]: inhibition was half-maximal at 1460 nM (IC50).

With `N#Cc1ccc(F)c(C(=O)N[C@H]2C[C@]3(C2)C[C@H](Oc2nc4c(cc2C(N)=O)COCC4)C3)c1` (stereo partly drawn) [Example 89, 2-{[(aR)-6-(5-cyano-2-fluorobenzamido)spiro[3.3]heptan-2-yl]oxy}-5H,7H,8H-pyrano[4,3-b]pyridine-3-carboxamide], the IC50 came out at 716 nM.

In turn, `CC(C)CC1NC(=O)N([C@H]2C[C@@]3(C[C@H](Oc4nn(C5CC5)cc4C(N)=O)C3)C2)C1=O` (stereo partly drawn) [Example 105, 1-cyclopropyl-3-{[(aR)-6-[4-(2-methylpropyl)-2,5-dioxoimidazolidin-1-yl]spiro[3.3]heptan-2-yl]oxy}-1H-pyrazole-4-carboxamide] gave an IC50 of 132 nM.

`Cn1cc(C(N)=O)c(OC2CC3(CC(NC(=O)c4cnn5cc(OCCC(F)(F)F)ccc45)C3)C2)n1` [Example 4, N-((aR)-6-((4-Carbamoyl-1-methyl-1H-pyrazol-3-yl)oxy)spiro[3.3]heptan-2-yl)-6-(3,3,3-trifluoropropoxy)pyrazolo[1,5-a]pyridine-3-carboxamide]: the IC50 was determined as 20.1 nM.

Take `CC(C)(O)COc1ccc2c(C(=O)N[C@H]3C[C@]4(C3)C[C@H](Oc3nn(CCN)cc3C(N)=O)C4)cnn2c1C1CC1` (stereo partly drawn) [Example 29, 1-(2-aminoethyl)-3-({(aR)-6-[7-cyclopropyl-6-(2-hydroxy-2-methylpropoxy)pyrazolo [1,5-a]pyridine-3-amido]spiro[3.3]heptan-2-yl}oxy)-1H-pyrazole-4-carboxamide]: the midpoint of inhibition, the IC50, lay at 254 nM.

For the compound `CC(C)(O)COc1ccc2c(C(=O)N[C@H]3C[C@]4(C3)C[C@H](Oc3nc5ccsc5cc3C(N)=O)C4)cnn2c1` (stereo partly drawn) [Example 84, 6-(2-hydroxy-2-methylpropoxy)-N-[(aR)-6-({6-carbamoylthieno[3,2-b]pyridin-5-yl}oxy)spiro[3.3]heptan-2-yl]pyrazolo[1,5-a]pyridine-3-carboxamide], the IC50 came out at 2.2 nM.

As to `CC(C)(O)COc1ccc2c(C(=O)N[C@H]3C[C@]4(C3)C[C@H](Oc3nn5ccc(-c6ccccc6)cc5c3C(N)=O)C4)nn(C(F)F)c2c1` (some centres unmarked) [Example 137, 1-(difluoromethyl)-6-(2-hydroxy-2-methylpropoxy)-N-[(4s)-6-({3-carbamoyl-5-phenylpyrazolo[1,5-a]pyridin-2-yl}oxy)spiro[3.3]heptan-2-yl]-1H-indazole-3-carboxamide], the half-inhibitory concentration (IC50) amounted to 150 nM.

`Cc1c(C(=O)N[C@H]2C[C@]3(C2)C[C@H](Oc2nc(C4CC4)sc2C(N)=O)C3)cnn1-c1ccc(F)cc1F` (stereo partly drawn) [Example 67, 2-cyclopropyl-4-{[(aR)-6-[1-(2,4-difluorophenyl)-5-methyl-1H-pyrazole-4-amido]spiro[3.3]heptan-2-yl]oxy}-1,3-thiazole-5-carboxamide]: the IC50 was found to be 142 nM.

For `NC(=O)c1cc2sccc2nc1OC1CC2(CC(NC(=O)C3CC(=O)N(Cc4ccc(Cl)cc4)C3)C2)C1` (single isomer, unassigned) [Example 78, N-[6-({6-carbamoylthieno[3,2-b]pyridin-5-yl}oxy)spiro[3.3]heptan-2-yl]-1-[(4-chlorophenyl)methyl]-5-oxopyrrolidine-3-carboxamide], the IC50 was found to be 3100 nM.

As to `Cn1ncc2cc(C(N)=O)c(O[C@H]3C[C@@]4(C[C@H](NC(=O)c5cnc6ccc(F)cc6c5)C4)C3)nc21` (stereo partly drawn) [Example 103, 6-fluoro-N-[(aR)-6-({5-carbamoyl-1-methyl-1H-pyrazolo[3,4-b]pyridin-6-yl}oxy)spiro[3.3]heptan-2-yl]quinoline-3-carboxamide], 5 nM corresponded to half-maximal inhibition (IC50).

Take `NC(=O)c1cc2c(nc1O[C@H]1C[C@@]3(C[C@H](NC(=O)c4ccc5[nH]ncc5c4)C3)C1)CCOC2` (stereo partly drawn) [Example 91, N-[(aR)-6-({3-carbamoyl-5H,7H,8H-pyrano[4,3-b]pyridin-2-yl}oxy)spiro[3.3]heptan-2-yl]-1H-indazole-5-carboxamide]: 330 nM corresponded to half-maximal inhibition (IC50).

Compound `Cc1nn(C)c2nc(OC3CC4(CC(NC(=O)c5cnn6cc(OCC(C)(C)O)ccc56)C4)C3)c(C(N)=O)cc12` (centres unmarked) [Example 73, 6-({6-[6-(2-hydroxy-2-methylpropoxy)pyrazolo [1,5-a]pyridine-3-amido]spiro[3.3]heptan-2-yl}oxy)-1,3-dimethyl-1H-pyrazolo[3,4-b]pyridine-5-carboxamide] came in with an IC50 of 1160 nM.

The compound `CC(C)(O)COc1ccc2c(C(=O)N[C@H]3C[C@]4(C3)C[C@H](Oc3nn(-c5ccccc5)cc3C(N)=O)C4)nn(C(F)F)c2c1` (stereo partly drawn) [Example 42, 1-(difluoromethyl)-6-(2-hydroxy-2-methylpropoxy)-N-[(aR)-6-[(4-carbamoyl-1-phenyl-1H-pyrazol-3-yl)oxy]spiro[3.3]heptan-2-yl]-1H-indazole-3-carboxamide] had an IC50 of 13.7 nM.

`Cc1nc(O[C@H]2C[C@@]3(C[C@H](NC(=O)c4cnn5cc(OCC(C)(C)O)ccc45)C3)C2)c(C(N)=O)s1` (stereo partly drawn) [Example 21, 4-({(aR)-6-[6-(2-hydroxy-2-methylpropoxy)pyrazolo [1,5-a]pyridine-3-amido]spiro[3.3]heptan-2-yl}oxy)-2-methyl-1,3-thiazole-5-carboxamide] registered an IC50 of 18.9 nM.

Compound `Cc1c(C(=O)N[C@H]2C[C@]3(C2)C[C@H](Oc2nn(C(F)F)cc2C(N)=O)C3)cnn1-c1ccc(Cl)cc1` (stereo partly drawn) [Example 55, 1-(4-chlorophenyl)-5-methyl-N-[(aR)-6-{[4-carbamoyl-1-(difluoromethyl)-1H-pyrazol-3-yl]oxy}spiro[3.3]heptan-2-yl]-1H-pyrazole-4-carboxamide] had an IC50 of 78.3 nM.

For the compound `CC(C)CC1NC(=O)N([C@H]2C[C@@]3(C[C@H](Oc4nc(C5CC5)sc4C(N)=O)C3)C2)C1=O` (single isomer, unassigned) [Example 110, 2-cyclopropyl-4-{[{aR)-6-[4-(2-methylpropyl)-2,5-dioxoimidazolidin-1-yl]spiro[3.3]heptan-2-yl]oxy}-1,3-thiazole-5-carboxamide], the IC50 came out at 12.2 nM.

In turn, `NC(=O)c1cc2sccc2nc1OC1CC2(CC(NC(=O)c3cnn4ccccc34)C2)C1` (centres unmarked) [Example 75, 5-[(6-{pyrazolo[1,5-a]pyridine-3-amido}spiro[3.3]heptan-2-yl)oxy]thieno[3,2-b]pyridine-6-carboxamide] registered an IC50 of 26.7 nM.

For `Cn1cc(C(N)=O)c(O[C@H]2C[C@@]3(C[C@H](NC(=O)c4cnn5cc(N6CCOCC6)ccc45)C3)C2)n1` (stereo partly drawn) [Example 32, 1-methyl-3-({(aR)-6-[6-(morpholin-4-yl)pyrazolo[1,5-a]pyridine-3-amido]spiro[3.3]heptan-2-yl}oxy)-1H-pyrazole-4-carboxamide], 29.9 nM corresponded to half-maximal inhibition (IC50).

As for `CC(C)(O)COc1ccc2c(C(=O)N[C@H]3C[C@]4(C3)C[C@H](Oc3c(C(N)=O)cnn3C(F)F)C4)cnn2c1C1CC1` (stereo partly drawn) [Example 39, 5-({(aR)-6-[7-cyclopropyl-6-(2-hydroxy-2-methylpropoxy)pyrazolo [1,5-a]pyridine-3-amido]spiro[3.3]heptan-2-yl}oxy)-1-(difluoromethyl)-1H-pyrazole-4-carboxamide], inhibition was half-maximal at 2400 nM (IC50).

`Cn1cc(C(N)=O)c(O[C@H]2C[C@@]3(C[C@H](NC(=O)c4cnn5c(C6CC6)c(OCC(C)(C)O)ccc45)C3)C2)n1` (stereo partly drawn) [Example 14, 3-({(aR)-6-[7-cyclopropyl-6-(2-hydroxy-2-methylpropoxy)pyrazolo [1,5-a]pyridine-3-amido]spiro[3.3]heptan-2-yl}oxy)-1-methyl-1H-pyrazole-4-carboxamide] came in with an IC50 of 14.1 nM.

Compound `NC(=O)c1sc(C2CC2)nc1O[C@H]1C[C@@]2(C[C@H](NC(=O)c3nc(C(F)(F)F)n4cc(-c5ccc(F)nc5)ccc34)C2)C1` (stereo partly drawn) [Example 63, 2-cyclopropyl-4-{[(aR)-6-[6-(6-fluoropyridin-3-yl)-3-(trifluoromethyl)imidazo[1,5-a]pyridine-1-amido]spiro[3.3]heptan-2-yl]oxy}-1,3-thiazole-5-carboxamide] displayed an IC50 of 6.1 nM.

In the case of `CC(C)(O)COc1ccc2c(C(=O)N[C@H]3C[C@]4(C3)C[C@H](Oc3nn5c(-c6ccccc6)cccc5c3C(N)=O)C4)nn(C(F)F)c2c1` (some centres unmarked) [Example 134, 1-(difluoromethyl)-6-(2-hydroxy-2-methylpropoxy)-N-[(4s)-6-({3-carbamoyl-7-phenylpyrazolo[1,5-a]pyridin-2-yl}oxy)spiro[3.3]heptan-2-yl]-1H-indazole-3-carboxamide], the IC50 amounted to 143 nM.

`CC(C)(O)COc1ccc2c(C(=O)N[C@H]3C[C@]4(C3)C[C@H](Oc3nn(C5CC5)cc3C(N)=O)C4)cnn2c1C1CC1` (stereo partly drawn) [Example 69, 1-cyclopropyl-3-({(aR)-6-[7-cyclopropyl-6-(2-hydroxy-2-methylpropoxy)pyrazolo [1,5-a]pyridine-3-amido]spiro[3.3]heptan-2-yl}oxy)-1H-pyrazole-4-carboxamide] displayed an IC50 of 4.5 nM.

`COc1ccc2c(C(N)=O)c(O[C@H]3C[C@@]4(C[C@H](NC(=O)c5cnn6cc(OCC(F)F)ccc56)C4)C3)nn2c1` (some centres unmarked) [Example 125, 6-methoxy-2-{[(4s)-6-[6-(2,2-difluoroethoxy)pyrazolo[1,5-a]pyridine-3-amido]spiro[3.3]heptan-2-yl]oxy}pyrazolo[1,5-a]pyridine-3-carboxamide]: the IC50 came to 316 nM.

`NC(=O)c1cn(-c2ccccc2)nc1O[C@H]1C[C@@]2(C[C@H](NC(=O)c3cnn4cc(OCCC(F)(F)F)ccc34)C2)C1` (stereo partly drawn) [Example 40, 1-phenyl-3-{[(aR)-6-[6-(3,3,3-trifluoropropoxy)pyrazolo[1,5-a]pyridine-3-amido]spiro[3.3]heptan-2-yl]oxy}-1H-pyrazole-4-carboxamide] returned an IC50 of 136 nM.
